Assay results from article PMC3764137, “Sulphamoylated 2-Methoxyestradiol Analogues Induce Apoptosis in Adenocarcinoma Cell Lines” (PLoS ONE, 2013).
“Also recorded” adds a separate entry of the source.

Assays:
Assay type in all cases: cell-based, human
HeLa cells [1] = test: Cell number determination by crystal violet staining; settings: for cell growth: 24 h; for concentration that significantly inhibits HeLa proliferation: 24 h of exposure
Protocol: Crystal violet is a method used to determine the number of cells by staining the deoxyribonucleic acid (DNA). Gillies et al. (1986) used crystal violet to quantify cell number in monolayer cultures as a function of the absorbance of the dye taken up by the cells. A dose-dependent study was chosen with a concentration range of 0.1–25 μM since it was previously observed in our laboratory that this concentration series exerts antiproliferative activity in HeLa cells. Exponentially growing HeLa cells were seeded in 96 well tissue culture plates at a cell density of 5,000 cells per well. Cells were incubated at 37°C in a humidified atmosphere containing 5% CO2 for 24 h to allow for attachment. To establish the starting number of cells, a baseline determination was conducted before exposure. Subsequently, the medium was discarded and cells were exposed to the sulphamoylated 2ME2 analogues at a concentration series of 0.1–25 μM for the 24 h at 37°C. Vehicle-treated controls were also included. Cells were fixed with 100 µl of 1% gluteraldehyde (incubation for 15 min at room temperature). Gluteraldehyde was discarded and cells were stained using 100 µl 0.1% crystal violet (incubated at room temperature for 30 min). Excedent crystal violet was discarded and the 96 well plate was submersed under running water. Cells were solubilized using 200 µl 0.2% Triton X-100 and incubated at room temperature for 30 min. Solution (100 µl) was transferred to a new microtitre plate. Afterwards, the absorbance was determined at 570 nm using an ELx800 Universal Microplate Reader available from Bio-Tek Instruments Inc. (Vermont, United States of America).

HeLa cells [2] = test: Cytochrome c release (FlowCellect, flow cytometry); settings: 0.5 μM analogues (2-methoxyestradiol-bis-sulphamate 0.55 μM), 24 h
Protocol: (§1) This kit utilizes a unique set of buffers that selectively permeabilizes the […] without affecting the mitochondrial membrane. […] Cells (500,000) were seeded with an overnight attachment policy. After 24 h of exposure to 0.5 μM of the sulphamoylated 2ME2 analogues, cells were detached using trypsin and centrifuged at 13,000×g. Cells (500,000) were resuspended in PBS, centrifuged and resuspended in permeabilization buffer (according to supplier's instructions) for 10 min on ice. Subsequently cells were centrifuged, resuspended in 100 µl fixation buffer (according to supplier's instructions) for 20 min at room temperature, centrifuged again and resuspended in blocking buffer (150 µl). After another centrifugation step, cells were centrifuged and resuspended in blocking buffer (twice). Anti-cytochrome c-FITC (10 µl) was added to each sample and samples were incubated for 30 min at room temperature. Cells were centrifuged and blocking buffer (100 µl) was added. After centrifugation, blocking buffer (200 µl) was added to the samples for analysis via flow cytometry (FC500 System flow cytometer, Beckman Coulter South Africa (Pty) Ltd). Cells presenting with cytochrome c release were detected in the fluorescein isothiocyanate (FITC) channel (FL1) showing diffused green fluorescence. Data from at least 10 000 cells were analyzed by means of Cyflogic version 1.2.1 software (Pertu Therho, Turko, Finland).

MDA-MB-231 cells [3] = test: Cytochrome c release (FlowCellect, flow cytometry); settings: MDA-MB-231, 0.5 μM analogues (2-methoxyestradiol-bis-sulphamate 0.55 μM), 24 h
Protocol: as §1

caspase-8 = test: FLICE/caspase 8 colorimetric assay; settings: 0.5 μM, 24 h
Protocol: (§2) Possible activation of caspase 3, -6 and -8 was investigated by means of caspase 3, caspase 6 and FLICE/caspase 8 colorimetric kits, respectively. Cells (1,000,000) were seeded with an overnight attachment policy. After 24 h of exposure to 0.5 μM of the sulphamoylated 2ME2 analogues, cells were detached with trypsin and centrifuged at 13,000× g. Cells (500,000) were resuspended in 50 µl of chilled cell lysis buffer and incubated on ice for 10 min. Cells were centrifuged at 10,000×g for a min. Supernatant was transferred to a fresh tube and put on ice. After determination of the protein concentration using the bicinchoninic acid (BCA) protein assay (Thermo Fisher Scientific, Johannesburg, South Africa), 100 µg protein/50 µl cell lysis buffer was mixed with 50 µl 2X reaction buffer (containing 10 mM Dithiothreitol (DTT)). Ac-Asp-Glu-Val-Asp-p-nitroanilide (Ac-DEVD-pNA) (5 µl of 4 mM) (caspase-3-specific substrate), or 5 µl 4 mM […] (Ac-VEID-pNA) (caspase-6-specific substrate), or 5 µl 4 mM Ac-Ile-Glu-Thr-Asp-p-nitroanilide (Ac-IETD-pNA) (caspase-8-specific substrate) was added and the mixture was incubated at 37°C for 120 min (200 µM final concentration). Absorbance was determined at 405 nm on the ELx800 Universal Microplate Reader available from Bio-Tek Instruments Inc. (Vermont, United States of America).

caspase 3 = test: Caspase 3 colorimetric assay in HeLa cells; settings: 0.5 μM, 24 h
Protocol: as §2

HeLa cells [4] = test: Double immunofluorescence of intracellular microtubules; settings: 24 h, 0.189 μM ESE-15-one, 0.5 μM EMBS and ESE-16, 1μM colchicine
Protocol: (§3) In order to visualize the effect of the 2ME2 analogues on microtubule dynamics and integrity, a double immunofluorescence technique using antibodies against tyrosinated and detyrsosinated tubulin was conducted as described by Paturle-Lafanechère et al. (2004). HeLa and MDA-MB-231 cells were seeded onto sterilized coverslips and allowed to grow to 80% confluency for 48 h. Cells were exposed to 0.189 μM ESE-15-one, 0.5 μM EMBS and ESE-16 along with DMSO (negative control) and 1μM colchicine as a positive control for 24 h. Cells were permeablised permeabilized with warmed OPT buffer (80 mmol/L Pipes, […], […], 0.5% Triton X-100 and glycerol 10%, pH 6.8), followed by fixation in ice-cold methanol at −20°C and were subsequently incubated with the primary antibody cocktail (PBS containing anti-detyrosinated tubulin (L4), anti-[…], BSA 0.3%, tween 0.1%). After incubation, cells were incubated with the secondary antibodies, namely Alexa 488 (Invitrogen) and Cy3 (Jackson ImmunoResearch laboratories). Samples were visualized using a Zeiss AxioImager Z1 microscope controlled by Axiovision softwared (Carl Zeiss) (X63 oil objective). Images were captured using an Ocra R2 N/B camera (Hamamatsu) and assessed for microtubule integrity and ratio of tyrosinated to detyrosinated tubulin.

MDA-MB-231 cells [5] = test: as above; settings: MDA-MB-231, 24 h; 0.189 μM ESE-15-one, 0.5 μM EMBS and ESE-16, 1μM colchicine
Protocol: as §3

[6] = 0.5 µM, compared to vehicle-treated cells

## CCc1cc2c(cc1OS(N)(=O)=O)CC[C@@H]1[C@@H]2CC[C@]2(C)C(=O)C=C[C@@H]12 [ESE-15-one, 2-Ethyl-3-O-sulphamoyl-estra-1,3,5 (10) 15-tetraene-3-ol-17one]
HeLa cells [1]; 0.1 µM
  cell growth: 80.31%
HeLa cells [1]; [6]
  cell growth: 40.87%
HeLa cells [1]; 5 µM and 10 µM
  cell growth: slight decrease in cell growth
HeLa cells [1]
  concentration that significantly inhibits HeLa proliferation: 0.5 µM
HeLa cells [2]
  Cytochrome c in cytoplasm (cells with cytochrome c release): 35%
MDA-MB-231 cells [3]
  Cytochrome c in cytoplasm (cells with cytochrome c release): 34%
caspase-8
  caspase-8 activity increase compared to vehicle-treated cells: 1.7 fold
Caspase 3
  caspase 3 activity compared to vehicle-treated cells: more than doubled
HeLa cells [4]
  microtubule integrity: microtubule abrogation; also recorded: altered microtubule morphology
MDA-MB-231 cells [5]
  microtubule integrity: detyrosinated microtubule fragments

## CCc1cc2c(cc1OS(N)(=O)=O)CC[C@@H]1C2CC[C@]2(C)[C@@H](OS(N)(=O)=O)CC[C@@H]12 (stereo partly drawn) [EMBS, (8R, 13S, 14S, 17S)-2-ethyl-13-methyl-7,8,9, 11, 12,13, 14, 15, 16, 17-decahydro-6H-cyclopenta [a] phenanthrane-3, 17-diyl bis (sulphamate)]
HeLa cells [1]; 0.1 µM
  cell growth: 92.32%
HeLa cells [1]; [6]
  cell growth: 40.01%
HeLa cells [1]; 5 µM and 10 µM
  cell growth: slight decrease in cell growth
HeLa cells [1]
  concentration that significantly inhibits HeLa proliferation: 0.5 µM
HeLa cells [2]
  Cytochrome c in cytoplasm (cells with cytochrome c release): 21–23%
MDA-MB-231 cells [3]
  Cytochrome c in cytoplasm (cells with cytochrome c release): 21–23%
caspase-8
  caspase-8 activity increase compared to vehicle-treated cells: 2.6 fold
Caspase 3
  caspase 3 activity compared to vehicle-treated cells: more than doubled
HeLa cells [4]
  microtubule integrity: microtubule abrogation; also recorded: fragmented microtubules
MDA-MB-231 cells [5]
  microtubule integrity: detyrosinated microtubule fragments
